The values that follow come from patent publication US10792236B2, “Dentifrice comprising zinc-amino acid complex” (Colgate-Palmolive Company, priority 2012, dated 2020).

Values joined by “and” are separate entries in the source; they are usually repeats but may differ in a detail not shown here. Identical values can stand only once. Where only a bound is given, the exact number is not on record here.

Series [1] is described as follows: Dilution experiment of ZLC neat solution: visible flocculation/precipitation at 37° C. It is filed as physicochemical. As for the experimental part:
Various dilutions of ZLC are prepared to evaluate its efficiency in producing visible precipitates and/or flocculation, which can be delivered in situ onto an oral surface or into a dental opening, such as open tubules.
(§1) A neat solution of ZLC is prepared by 1), reacting 0.5 mole of ZnO powder with 1 mole of lysine HCl in 1 liter of water at room temperature for about 2 hours, and 2) collecting the supernatant through centrifugation followed by filtration using a 0.45 micron membrane. The neat solution has a zinc concentration of 2.39% by weight, and a pH of about 7.03.
(§2) Dilution experiment is conducted by mixing the neat solution with deionized water. The neat solution is diluted by 2×, 4×, 6×, 7×, 8×, 10×, 12×, 16×, 20×, 24×, 28×, and 32×, corresponding to initial zinc concentrations of 1.20%, 0.598%, 0.398%, 0.341%, 0.299%, 0.239%, 0.199%, 0.149%, 0.120%, 0.0996%, 0.0854%, 0.0747%, by weight, respectively. The diluted samples are kept at 37° C., and the rates at which flocculation/precipitation occurred are monitored.

Series [2] can be described thus: pH of ZLC neat solution and final diluted samples. Conditions: for final pH value: diluted sample. It is filed as physicochemical. As for the experimental part:
as §1, §2
pH values of final diluted samples are suitable for oral care applications. […] These pH values were well within the range of 5.5 to 10, which defines the suitable range for oral care formulations.

Series [3] is described as follows: Deposition/occlusion assay on dentine slices, confocal imaging. The arrangement: species or system human. As for the experimental part:
The deposition/occlusion assay is conducted using human dentine slices and the neat solution of Example 5. The dentine slices were prepared by cutting human tooth into thin dentine sections of about 800 microns in thickness, choosing a test side, sanding said test side using a sandpaper of about 600 grit, polishing said test side using a Buehler polishing cloth and 5 micron Buehler aluminum oxide, acid-etching said dentine section in 1% (by weight) citric acid solution for about 20 seconds, sonicating said dentine section for 10 minutes, and storing said dentine section in phosphate buffered saline (PBS, pH 7.4).
For treatment, the neat solution is diluted 16-fold with water, yielding a treatment solution with initial zinc concentration of about 0.149% by weight. The dentine section is immersed in the treatment solution for 1 hour at 37° C. The treated dentine section is then removed from the treatment solution, and rinsed 4 times, each time with 1 mL of PBS. The dentine section is then dried using a paper-based tissue and examined under confocal microscope in both XYZ and XYZ modes. Subsequent treatments are conducted in the same manner.
Dentine sections, as prepared in Example 6, are repeatedly treated with ZLC dilutions with initial zinc concentration of 0.0747% by weight. […] The dentine section is examined under the confocal microscope after each treatment.

As to [Zn(C6H14N2O2)2Cl]^+ Cl^− [ZLC], the “samples with flocculation and/or precipitation” value in series [1] (after a total of 19 hours) was “all samples except the one with initial zinc concentration of 1.20%”. Also, the “initial zinc concentration of additional sample showing flocculation” value in series [1] (two hours after mixing) turned out to be 0.299%. The “initial zinc concentrations of dilutions with visible flocculation” value in series [1] (within 30 minutes from mixing with water) is 0.149% and 0.199%. Moreover, the “final pH value” in series [2] (initial zinc concentration 0.0747%) stood at 7.99; in series [2] (initial zinc concentration 0.0854%), 8.13; in series [2] (initial zinc concentration 0.0996%), 8.11; in series [2] (initial zinc concentration 0.120%), 7.97; in series [2] (initial zinc concentration 0.149%), 7.99; in series [2] (initial zinc concentration 0.199 wt %), 6.80. Also, the “final pH value” in series [2] (initial zinc concentration 0.239%) turned out to be 6.70. Further, in series [2] (neat solution, zinc 2.39% by weight), the pH entry was “about 7.03”. Besides, the “deposition/occlusion on dentine surface” value in series [3] (4 consecutive treatments, initial zinc 0.0747%, 10 minutes at 37° C. each) is “significant surface deposition”; in series [3] (12 consecutive treatments, initial zinc 0.0747%, 10 minutes at 37° C. each), “complete surface coverage”; in series [3] (first treatment, neat solution diluted 16-fold, zinc about 0.149%, 1 hour at 37° C.), “noticeable deposition”; in series [3] (second treatment, 16-fold dilution, zinc about 0.149%, 1 hour at 37° C. each), “complete surface coverage, including blocking of substantially all tubule openings”; in series [3] (third treatment, 16-fold dilution, zinc about 0.149%, 1 hour at 37° C. each), “complete surface coverage and complete blocking of tubule openings”. Besides, the “visible precipitation during treatment” value in series [3] (32-fold dilution, initial zinc 0.0747%, 10 minutes at 37° C.) is given as “no precipitation is observed by naked eyes”. The “thickness of surface deposits” value in series [3] (after second treatment, 16-fold dilution, zinc about 0.149%) is reported as at least 10 microns; in series [3] (after third treatment, 16-fold dilution, zinc about 0.149%), at least 25 microns.
